Biological target: T1, human fibroblast collagenase (Homo sapiens, UniProt P03956)
T1 sequence (P03956 100-469): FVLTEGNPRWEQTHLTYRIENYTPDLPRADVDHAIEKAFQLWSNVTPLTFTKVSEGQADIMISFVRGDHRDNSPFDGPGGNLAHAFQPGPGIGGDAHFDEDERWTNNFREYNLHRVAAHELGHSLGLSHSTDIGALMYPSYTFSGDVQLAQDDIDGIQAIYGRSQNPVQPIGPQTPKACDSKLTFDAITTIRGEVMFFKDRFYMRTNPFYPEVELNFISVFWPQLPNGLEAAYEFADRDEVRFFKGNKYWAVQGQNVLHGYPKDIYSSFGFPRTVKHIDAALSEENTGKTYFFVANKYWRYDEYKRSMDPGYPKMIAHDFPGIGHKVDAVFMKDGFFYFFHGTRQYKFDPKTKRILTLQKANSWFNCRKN
Experiment: Human fibroblast collagenase inhibition assay (14C-acetylated collagen hydrolysis, Cawston and Barrett)
Assay type: biochemical
Conditions: 37° C., 16 hours, acetylated 14C collagen, 25 mM Hepes pH 7.5; read-out: inhibitor concentration effecting 50% inhibition of the collagenase activity (IC50)
Description: The potency of compounds of the present invention as inhibitors of human fibroblast collagenase may be determined by the procedure of Cawston and Barrett, (Anal. Biochem., 99, 340-345, 1979), hereby incorporated by reference, whereby a 1 mM solution of the compound being tested, or a dilution thereof, was incubated at 37° C. for 16 hours with collagen and human fibroblast collagenase (buffered with 25 mM Hepes, pH 7.5 containing 5 mM CaCl2, 0.05% Brij 35 and 0.02% NaN3). The collagen was acetylated ^14 C collagen prepared by the method of Cawston and Murphy, (Methods in Enzymology, 80, 711, 1981), hereby incorporated by reference. The samples were centrifuged to sediment undigested collagen, and an aliquot of the radioactive supernatant removed for assay on a scintillation counter as a measure of hydrolysis.

COc1ccc(S(=O)(=O)NCC[C@H](C(=O)NO)[C@@H](CC(C)C)C(=O)N2CCCCC2)cc1 [Example 2, 2S-[(4-Methoxybenzenesulfonyl-amino)-ethyl]-5-methyl-3R-(piperidine-1-carbonyl)-hexanoic acid hydroxyamide]
IC50: ~0.05 µM
